From PubChem BioAssay (NCI)
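Tested at 5 concentrations; 48 h exposure; 96-well plates; endpoints linearly interpolated, else capped at highest concentration. The concentration for 50% growth inhibition is given as GI50. Definition used: TGI = concentration required for complete inhibition of growth.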

Columns and labels:
Experiment in all cases: DTP human tumour cell line panel, 48 h
HCT-15 colon = test system: HCT-15 colon
HCC-2998 colon = test system: HCC-2998 colon
IGROV1 ovarian = test system: IGROV1 ovarian
EKVX NSCLC = test system: EKVX NSCLC
NCI-H460 lung = test system: NCI-H460 lung
786-0 renal = test system: 786-0 renal
KM12 colon = test system: KM12 colon
SNB-75 CNS = test system: SNB-75 CNS
NCI-H226 lung = test system: NCI-H226 lung
T-47D breast = test system: T-47D breast
HL-60(TB) leukemia = test system: HL-60(TB) leukemia
SR leukemia = test system: SR leukemia
NCI/ADR-RES ovarian = test system: NCI/ADR-RES ovarian
DU-145 prostate = test system: DU-145 prostate
RXF 393 renal = test system: RXF 393 renal
SF-268 CNS = test system: SF-268 CNS
OVCAR-5 ovarian = test system: OVCAR-5 ovarian
PC-3 prostate = test system: PC-3 prostate
CCRF-CEM leukemia = test system: CCRF-CEM leukemia
OVCAR-8 ovarian = test system: OVCAR-8 ovarian
SK-MEL-28 melanoma = test system: SK-MEL-28 melanoma
BT-549 breast = test system: BT-549 breast
MDA-MB-435 = test system: MDA-MB-435
OVCAR-4 ovarian = test system: OVCAR-4 ovarian
COLO 205 colon = test system: COLO 205 colon
MALME-3M melanoma = test system: MALME-3M melanoma
SN12C renal = test system: SN12C renal
OVCAR-3 ovarian = test system: OVCAR-3 ovarian
NCI-H522 lung = test system: NCI-H522 lung
SK-OV-3 ovarian = test system: SK-OV-3 ovarian
HT29 colon = test system: HT29 colon
HOP-92 NSCLC = test system: HOP-92 NSCLC
ACHN renal = test system: ACHN renal
HOP-62 NSCLC = test system: HOP-62 NSCLC
SF-539 CNS = test system: SF-539 CNS
SF-295 CNS = test system: SF-295 CNS
NCI-H23 lung = test system: NCI-H23 lung
UO-31 renal = test system: UO-31 renal
A549 NSCLC = test system: A549 NSCLC
SW-620 colon = test system: SW-620 colon
A498 renal = test system: A498 renal
K-562 leukemia = test system: K-562 leukemia
HCT-116 colon = test system: HCT-116 colon
U251 CNS = test system: U251 CNS
SK-MEL-2 melanoma = test system: SK-MEL-2 melanoma
LOX IMVI melanoma = test system: LOX IMVI melanoma
SK-MEL-5 melanoma = test system: SK-MEL-5 melanoma
SNB-19 CNS = test system: SNB-19 CNS
CAKI-1 renal = test system: CAKI-1 renal
MDA-MB-231 breast = test system: MDA-MB-231 breast
HS 578T breast = test system: HS 578T breast
TK-10 renal = test system: TK-10 renal
MOLT-4 leukemia = test system: MOLT-4 leukemia
M14 melanoma = test system: M14 melanoma

C=C1C(=O)O[C@H]2[C@H]1CC/C(Cn1cc(-c3ccsc3)nn1)=C\CC[C@@]1(C)O[C@@H]21
GI50 (HCT-15 colon): 1.11 µM | TGI (HCT-15 colon): 2.54 µM | GI50 (HCC-2998 colon): 1.84 µM | TGI (HCC-2998 colon): 3.42 µM | GI50 (IGROV1 ovarian): 1.92 µM | TGI (IGROV1 ovarian): 5.03 µM | GI50 (EKVX NSCLC): 2.33 µM | TGI (EKVX NSCLC): 7.76 µM | GI50 (NCI-H460 lung): 4.71 µM | TGI (NCI-H460 lung): 18.9 µM | GI50 (786-0 renal): 1.76 µM | TGI (786-0 renal): 3.96 µM | GI50 (KM12 colon): 6.45 µM | TGI (KM12 colon): 19.6 µM | GI50 (SNB-75 CNS): 3.23 µM | TGI (SNB-75 CNS): 18.2 µM | GI50 (NCI-H226 lung): 2.09 µM | TGI (NCI-H226 lung): 5.51 µM | GI50 (T-47D breast): 2.03 µM | TGI (T-47D breast): 5.52 µM | GI50 (HL-60(TB) leukemia): 1.91 µM | TGI (HL-60(TB) leukemia): 7 µM | GI50 (SR leukemia): 0.56 µM | TGI (SR leukemia): 9.39 µM | GI50 (NCI/ADR-RES ovarian): 3.79 µM | TGI (NCI/ADR-RES ovarian): 16.9 µM | GI50 (DU-145 prostate): 1.43 µM | TGI (DU-145 prostate): 2.88 µM | GI50 (RXF 393 renal): 1.07 µM | TGI (RXF 393 renal): 2.46 µM | GI50 (SF-268 CNS): 2.53 µM | TGI (SF-268 CNS): 8.15 µM | GI50 (OVCAR-5 ovarian): 2.29 µM | TGI (OVCAR-5 ovarian): 7.13 µM | GI50 (PC-3 prostate): 4.21 µM | TGI (PC-3 prostate): 14.9 µM | GI50 (CCRF-CEM leukemia): 1.63 µM | TGI (CCRF-CEM leukemia): 12.3 µM | GI50 (OVCAR-8 ovarian): 2.96 µM | TGI (OVCAR-8 ovarian): 11 µM | GI50 (SK-MEL-28 melanoma): 1.81 µM | TGI (SK-MEL-28 melanoma): 4.02 µM | GI50 (BT-549 breast): 1.8 µM | TGI (BT-549 breast): 5.21 µM | GI50 (MDA-MB-435): 1.85 µM | TGI (MDA-MB-435): 4.54 µM | GI50 (OVCAR-4 ovarian): 2.48 µM | TGI (OVCAR-4 ovarian): 7.61 µM | GI50 (COLO 205 colon): 1.45 µM | TGI (COLO 205 colon): 3.24 µM | GI50 (MALME-3M melanoma): 1.61 µM | TGI (MALME-3M melanoma): 3.34 µM | GI50 (SN12C renal): 2.45 µM | TGI (SN12C renal): 7.33 µM | GI50 (OVCAR-3 ovarian): 1.06 µM | TGI (OVCAR-3 ovarian): 2.28 µM | GI50 (NCI-H522 lung): 1.39 µM | TGI (NCI-H522 lung): 3.17 µM | GI50 (SK-OV-3 ovarian): 17.4 µM | TGI (SK-OV-3 ovarian): 31.4 µM | GI50 (HT29 colon): 1.66 µM | TGI (HT29 colon): 3.64 µM | GI50 (HOP-92 NSCLC): 1.66 µM | TGI (HOP-92 NSCLC): 3.62 µM | GI50 (ACHN renal): 1.32 µM | TGI (ACHN renal): 2.69 µM | GI50 (HOP-62 NSCLC): 4.9 µM | TGI (HOP-62 NSCLC): 18.9 µM | GI50 (SF-539 CNS): 1.8 µM | TGI (SF-539 CNS): 3.47 µM | GI50 (SF-295 CNS): 9.61 µM | TGI (SF-295 CNS): 21.5 µM | GI50 (NCI-H23 lung): 1.82 µM | TGI (NCI-H23 lung): 4 µM | GI50 (UO-31 renal): 1.35 µM | TGI (UO-31 renal): 3.18 µM | GI50 (A549 NSCLC): 8.61 µM | TGI (A549 NSCLC): 23.1 µM | GI50 (SW-620 colon): 1.32 µM | TGI (SW-620 colon): 2.68 µM | GI50 (A498 renal): 2.65 µM | TGI (A498 renal): 12.6 µM | GI50 (K-562 leukemia): 2.51 µM | TGI (K-562 leukemia): 11.7 µM | GI50 (HCT-116 colon): 1.16 µM | TGI (HCT-116 colon): 2.76 µM | GI50 (U251 CNS): 2.5 µM | TGI (U251 CNS): 8 µM | GI50 (SK-MEL-2 melanoma): 2.27 µM | TGI (SK-MEL-2 melanoma): 5.34 µM | GI50 (LOX IMVI melanoma): 1.28 µM | TGI (LOX IMVI melanoma): 2.61 µM | GI50 (SK-MEL-5 melanoma): 1.83 µM | TGI (SK-MEL-5 melanoma): 3.88 µM | GI50 (SNB-19 CNS): 9.49 µM | TGI (SNB-19 CNS): 23.2 µM | GI50 (CAKI-1 renal): 1.06 µM | TGI (CAKI-1 renal): 2.25 µM | GI50 (MDA-MB-231 breast): 1.75 µM | TGI (MDA-MB-231 breast): 3.61 µM | GI50 (HS 578T breast): 2.82 µM | TGI (HS 578T breast): 16 µM | GI50 (TK-10 renal): 1.52 µM | TGI (TK-10 renal): 3.16 µM | GI50 (MOLT-4 leukemia): 2.59 µM | TGI (MOLT-4 leukemia): 6.9 µM | GI50 (M14 melanoma): 1.93 µM | TGI (M14 melanoma): 5.02 µM
